Results from patent publication US7504362B2, “Pesticidal compositions” (Merial Limited, priority 2002, dated 2009).

What follows are molecules tested on Ctenocephalides felis, Diabrotica undecimpunctata, Nephotettix cincticeps or Rhipicephalus sanguineus (assay: Pooled statement: active in one or more of the above tests (Methods A to E)). Details: active = reaching the threshold of Method A, B, C, D or E; test not given per compound.
Assay type: in vivo
Experimental: The following representative test procedures, using compounds of the invention, were conducted to determine the parasiticidal and pesticidal activity of compounds of the invention.
A test container was filled with 10 adults of Ctenocephalides felis. A glass cylinder was closed on one end with parafilm and placed on top of the test container. The test compound solution was then pipetted into bovine blood and added to the glass cylinder. The treated Ctenocephalides felis were held in this artificial dog test (blood 37° C., 40-60% relative humidity; Ctenocephalides felis 20-22° C., 40-60% relative humidity) and assessment performed at 24 and 48 hours after application. Active compounds gave at least 90% control of Ctenocephalides felis at a test concentration of 5 ppm or less.
Two days before application, seeds of maize were soaked in water under warm conditions to elicit fast germination. One day before application, eggs of Diabrotica undecimpunctata were transferred to one half of a Japanese filter paper placed in a plastic petri dish. Afterwards, a sprouted maize seed was placed on a moistened pad beside the filter paper. Three drops of 200 microliters of test compound solution were carefully pipetted onto the egg. The remainder of the solution was placed on the maize and then the Petri dish was closed. The treated eggs in the Petri dishes were held in a climate chamber for 6 days. The compound efficacy (percentage of dead eggs and/or larvae in comparison to untreated control) was assessed 6 days after application using a binocular microscope.
Active compounds gave at least 90% control of Diabrotica undecimpunctata at a test concentration of 10 ppm.
The leaves of 12 rice plants having a stem length of 8 cm were dipped for 5 seconds into an aqueous solution of the formulated test compound. After the solution had run off, the rice plants treated in this manner were placed in a Petri dish and populated with about 20 larvae (L3 stage) of Nephotettix cincticeps. The Petri dish was closed and then stored in a climate chamber (16 hours of light/day, 25° C., 40-60% relative humidity). After 6 days storage, the percentage mortality of leafhopper larvae was determined.
Active compounds gave at least 98% mortality of Nephotettix cinciceps larvae at a test concentration of 100 ppm.
Solutions of the test compounds were dropped onto filter paper, dried and the filter paper placed into test tubes and infested with 10 adults of Ctenocephalides felis. The treated Ctenocephalides felis were held in a climate chamber (26° C., 80% RH) and the percentage efficacy assessed 24 hours and 48 hours after application in comparison with the untreated control.
Active compounds gave at least 70% contact control of Ctenocephalides felis at a test concentration of 1000 ppm.
Solutions of the test compounds were dropped onto filter paper, dried and the filter paper placed into test tubes and infested with 20-30 larvae (L1) of Rhipicephalus sanguineus and the tubes closed with a clip. The treated Rhipicephalus sanguineus were held in a climate chamber (25° C., 90% RH) and the percentage efficacy assessed 24 hours after application in comparison with the untreated control. Active compounds gave at least 70% contact control of Rhipicephalus sanguineus at a test concentration of 100 ppm.

SMILES | active in one or more of the above tests
Cc1ccc(S(=O)(=O)N(C)c2c(SC(F)(F)F)c(C#N)nn2-c2c(Cl)cc(C(F)(F)F)cc2Cl)cc1 [Compound 5-32] | active
CN(c1c([S+]([O-])C(F)(F)F)c(C#N)nn1-c1c(Cl)cc(C(F)(F)F)cc1Cl)S(=O)(=O)c1ccc(C(C)(C)C)cc1 (centres unmarked) [Compound 5-83] | active
CN(c1c([S+]([O-])C(F)(F)F)c(C#N)nn1-c1c(Cl)cc(C(F)(F)F)cc1Cl)S(=O)(=O)c1ccc(-c2ccc(Cl)c(Cl)c2)cc1 (centres unmarked) [Compound 5-150] | active
CCCCCCCCCS(=O)(=O)N(C)c1c([S+]([O-])C(F)(F)F)c(C#N)nn1-c1c(Cl)cc(C(F)(F)F)cc1Cl (centres unmarked) [Compound 1-94] | active
CC(C)S(=O)(=O)N(C)c1c(SC(F)(F)F)c(C#N)nn1-c1c(Cl)cc(C(F)(F)F)cc1Cl [Compound 1-122] | active
CN(c1c([S+]([O-])C(F)(F)F)c(C#N)nn1-c1c(Cl)cc(C(F)(F)F)cc1Cl)S(=O)(=O)c1cccc(C(F)(F)F)c1 (centres unmarked) [Compound 5-60] | active
Cc1ccc(S(=O)(=O)N(C)c2c([S+]([O-])C(F)(F)F)c(C#N)nn2-c2c(Cl)cc(C(F)(F)F)cc2Cl)cc1 (centres unmarked) [Compound 5-77] | active
CN(c1c([S+]([O-])C(F)(F)F)c(C#N)nn1-c1c(Cl)cc(C(F)(F)F)cc1Cl)S(=O)(=O)c1ccc([N+](=O)[O-])cc1 (centres unmarked) [Compound 5-88] | active
CCCCCCCCCCCCS(=O)(=O)N(C)c1c([S+]([O-])C(F)(F)F)c(C#N)nn1-c1c(Cl)cc(C(F)(F)F)cc1Cl (centres unmarked) [Compound 1-96] | active
CN(c1c(SC(F)(F)F)c(C#N)nn1-c1c(Cl)cc(C(F)(F)F)cc1Cl)S(=O)(=O)Cc1cc(Cl)cc(Cl)c1 [Compound 2-149] | active
CN(c1c([S+]([O-])C(F)(F)F)c(C#N)nn1-c1c(Cl)cc(C(F)(F)F)cc1Cl)S(=O)(=O)C(Cl)Cl (centres unmarked) [Compound 1-119] | active
CN(c1c(SC(F)(F)F)c(C#N)nn1-c1c(Cl)cc(C(F)(F)F)cc1Cl)S(=O)(=O)c1ccccc1 [Compound 5-36] | active
CCCCCCCCCCCCS(=O)(=O)N(C)c1c([S+]([O-])C(F)(F)F)c(C#N)nn1-c1c(Cl)cc(C(F)(F)F)cc1Cl (centres unmarked) [Compound 1-126] | active
CN(c1c(SC(F)(F)F)c(C#N)nn1-c1c(Cl)cc(C(F)(F)F)cc1Cl)S(=O)(=O)Cc1cccs1 [Compound 4-33] | active
CN(c1c(SC(F)(F)F)c(C#N)nn1-c1c(Cl)cc(C(F)(F)F)cc1Cl)S(=O)(=O)c1ccc(C(F)(F)F)cc1 [Compound 5-16] | active
CN(c1c(SC(F)(F)F)c(C#N)nn1-c1c(Cl)cc(C(F)(F)F)cc1Cl)S(C)(=O)=O [Compound 1-2] | active
CCS(=O)(=O)N(C)c1c(S(=O)(=O)C(F)(F)F)c(C#N)nn1-c1c(Cl)cc(C(F)(F)F)cc1Cl [Compound 1-72] | active
CN(c1c([S+]([O-])C(F)(F)F)c(C#N)nn1-c1c(Cl)cc(C(F)(F)F)cc1Cl)S(=O)(=O)c1ccccc1Cl (centres unmarked) [Compound 5-46] | active
CN(c1c(SC(F)(F)F)c(C#N)nn1-c1c(Cl)cc(C(F)(F)F)cc1Cl)S(=O)(=O)c1cc(Cl)cc(Cl)c1 [Compound 5-42] | active
CN(c1c([S+]([O-])C(F)(F)F)c(C#N)nn1-c1c(Cl)cc(C(F)(F)F)cc1Cl)S(=O)(=O)C(F)(F)F (centres unmarked) [Compound 1-90] | active
CN(c1c([S+]([O-])C(F)(F)F)c(C#N)nn1-c1c(Cl)cc(C(F)(F)F)cc1Cl)S(=O)(=O)c1ccc(Cl)cc1 (centres unmarked) [Compound 5-48] | active
CCCCS(=O)(=O)N(C)c1c(S(=O)(=O)C(F)(F)F)c(C#N)nn1-c1c(Cl)cc(C(F)(F)F)cc1Cl [Compound 1-120] | active

SMILES | active in one or more of the above tests
CN(c1c([S+]([O-])C(F)(F)F)c(C#N)nn1-c1c(Cl)cc(C(F)(F)F)cc1Cl)S(=O)(=O)c1ccc(C(F)(F)F)cc1 (centres unmarked) [Compound 5-61] | active
Cc1ccc(CS(=O)(=O)N(C)c2c(SC(F)(F)F)c(C#N)nn2-c2c(Cl)cc(C(F)(F)F)cc2Cl)cc1 [Compound 2-74] | active
CS(=O)(=O)[N-]c1c(SC(F)(F)F)c(C#N)nn1-c1c(Cl)cc(C(F)(F)F)cc1Cl.[Na+] [Compound 1-116] | active
CN(c1c(SC(F)(F)F)c(C#N)nn1-c1c(Cl)cc(C(F)(F)F)cc1Cl)S(=O)(=O)Cc1ccc(Cl)s1 [Compound 4-32] | active
CN(c1c(S(=O)(=O)C(F)(F)F)c(C#N)nn1-c1c(Cl)cc(C(F)(F)F)cc1Cl)S(=O)(=O)CCCCl [Compound 1-121, 1-(2,6-Dichloro-4-trifluoromethylphenyl)-5-[N-(3-chloropropylsulfonyl)-N-methylamino]-3-cyano-4-trifluoromethylsulfonylpyrazole] | active
CN(c1c(SC(F)(F)F)c(C#N)nn1-c1c(Cl)cc(C(F)(F)F)cc1Cl)S(=O)(=O)Cc1ccc(Cl)c(Cl)c1 [Compound 2-48] | active
CN(c1c(S(=O)(=O)C(F)(F)F)c(C#N)nn1-c1c(Cl)cc(C(F)(F)F)cc1Cl)S(=O)(=O)Cc1ccc(Cl)cc1 [Compound 2-115] | active
Cc1cccc(S(=O)(=O)N(C)c2c([S+]([O-])C(F)(F)F)c(C#N)nn2-c2c(Cl)cc(C(F)(F)F)cc2Cl)c1 (centres unmarked) [Compound 5-75] | active
CS(=O)(=O)Nc1c(SC(F)(F)F)c(C#N)nn1-c1c(Cl)cc(C(F)(F)F)cc1Cl [Compound 1-1] | active
CN(c1c([S+]([O-])C(F)(F)F)c(C#N)nn1-c1c(Cl)cc(C(F)(F)F)cc1Cl)S(=O)(=O)Cc1cc(Cl)cc(Cl)c1 (centres unmarked) [Compound 2-150] | active
CN(c1c(SC(F)(F)F)c(C#N)nn1-c1c(Cl)cc(C(F)(F)F)cc1Cl)S(=O)(=O)c1ccccc1Cl [Compound 5-1] | active
CN(c1c([S+]([O-])C(F)(F)F)c(C#N)nn1-c1c(Cl)cc(C(F)(F)F)cc1Cl)S(C)(=O)=O (centres unmarked) [Compound 1-16] | active
CN(c1c(S(=O)(=O)C(F)(F)F)c(C#N)nn1-c1c(Cl)cc(C(F)(F)F)cc1Cl)S(=O)(=O)Cc1cc(C(F)(F)F)cc(C(F)(F)F)c1 [Compound 2-129] | active
CCCCCCCCCCS(=O)(=O)N(C)c1c([S+]([O-])C(F)(F)F)c(C#N)nn1-c1c(Cl)cc(C(F)(F)F)cc1Cl (centres unmarked) [Compound 1-95] | active
CN(c1c([S+]([O-])C(F)(F)F)c(C#N)nn1-c1c(Cl)cc(C(F)(F)F)cc1Cl)S(=O)(=O)C=Cc1ccccc1 (centres unmarked) [Compound 1-114] | active
CN(c1c([S+]([O-])C(F)(F)F)c(C#N)nn1-c1c(Cl)cc(C(F)(F)F)cc1Cl)S(=O)(=O)Cc1ccc(Cl)s1 (centres unmarked) [Compound 4-35] | active
CN(c1c(S(=O)(=O)C(F)(F)F)c(C#N)nn1-c1c(Cl)cc(C(F)(F)F)cc1Cl)S(=O)(=O)Cc1ccccc1 [Compound 2-30] | active
Cc1ccc(CS(=O)(=O)N(C)c2c([S+]([O-])C(F)(F)F)c(C#N)nn2-c2c(Cl)cc(C(F)(F)F)cc2Cl)cc1 (centres unmarked) [Compound 2-109] | active
CCS(=O)(=O)Nc1c([S+]([O-])C(F)(F)F)c(C#N)nn1-c1c(Cl)cc(C(F)(F)F)cc1Cl (centres unmarked) [Compound 1-117] | active
CCCCCc1ccc(CS(=O)(=O)N(C)c2c(SC(F)(F)F)c(C#N)nn2-c2c(Cl)cc(C(F)(F)F)cc2Cl)cc1 [Compound 2-148] | active
CN(c1c(S(=O)(=O)C(F)(F)F)c(C#N)nn1-c1c(Cl)cc(C(F)(F)F)cc1Cl)S(=O)(=O)Cc1cccs1 [Compound 4-34] | active
CN(c1c(S(=O)(=O)C(F)(F)F)c(C#N)nn1-c1c(Cl)cc(C(F)(F)F)cc1Cl)S(=O)(=O)Cc1cc(Cl)cc(Cl)c1 [Compound 2-151] | active
